Patent publication US20030082135A1, “Pathway of RANTES-mediated chemokine synthesis in astrocytes and methods of use therefor” (priority 2001, published 2003)
“Also recorded” adds a separate entry of the source. Like-named read-outs stand apart in the source and are kept apart here. Where no end group is shown, it is not given here.

Legend:
[1] = test system: MEK, ERK1/2, p90RSK, p38, SAPK/JNK phosphorylation in astrocytes; assay: Western blotting of phosphorylated MAP kinase pathway proteins in astrocyte lysates; format: cell-based, mouse; settings: for effect on erk1/2 and RSK phosphorylation induced by H-89: 10-50 μM U0126 or 5 μM SB203580, 10 μM H-89 for 20 min
Protocol: SDS-PAGE and Western blotting. Astrocytes were treated for the indicated time with media or 100 ng/ml RANTES, eotaxin, or other materials as indicated. Cells (3×10^5 in Examples 1-3, or 2×10^4 in later Examples) were resuspended in 100 μl buffer (50 mM HEPES, pH 7.5, 150 mM NaCl, 2 mM EDTA, 2 mM EGTA, 1% Triton X-100, 50 mM Sodium fluoride, 5 mM Sodium pyrophosphate, 50 mM Sodium β-glycerophosphate, 1 mM Sodium Ortho-vanadate, 1 mM DTT, 1 mM PMSF, 10 μg/ml Leupeptin, and 10 μg/ml Aprotinin). Protein concentration of the whole cell extract was determined by BCA protein assay kit (Pierce, Rockford, Ill.). Samples (10 μg) were loaded and separated on a 10% SDS-polyacrylamide gel. After transfer to Hybond ECL nitrocellulose membrane (Amersham Pharmacia Biotech Inc, Piscataway, N.J.) or Zeta-probe blotting membranes (Bio-Rad, Richmond Calif.) blots were blocked overnight with 5% BSA at 4° C., and probed with the antibody indicated. Antibody against unphosphorylated or phosphorylated erk (Cell Signaling, Beverly, Mass.) was used at 1 μg/ml. Appropriate anti-immunoglobulin reagents were used to develop the blots by enhanced chemiluminescence (Amersham Pharmacia Biotech Inc, Piscataway, N.J.).
Little is known about the signaling mechanisms involved in astrocyte respones to chemokines. To examine components of the RANTES signal transduction pathway, phosphorylation of the MAP kinase kinase (MEK) and mitogen activated protein (MAP) kinases was examined. To minimize basal kinase activity, astrocytes were starved of serum for at least 3 h before treatment with chemokine. Whole cell lysates were separated by SDS-PAGE and examined by Western blot. Antibodies that specifically react with phosphorylated MEK or phosphorylated extracellular signal-related kinase (ERK) were used to detect the active kinases.

[2] = test system: primary neonatal mouse astrocyte cultures; assay: RNase protection assay (RPA) for chemokine/cytokine transcripts in astrocyte cultures; format: cell-based; settings: for expression of transcripts for MIP-1α: PKA inhibitors alone, 3 h; for expression of TNF-α, RANTES, KC, MIP-1α, MIP-2, and MCP-1 transcripts: BALB/cJ neonatal astrocytes, chemokine for 6 h
Protocol: Astrocyte isolation and culture. […] RNA isolation and RNase protection assay (RPA). […] RNase protection assays (RPA) for chemokine message were conducted with multi-probe templates according to the manufacture's protocol (RiboQuant assay kit, BD-PharMingen, San Diego, Calif.). Gels were scanned and radioactive bands quantitated using a phosphoimager (Molecular Dynamics, Sunnyvale, Calif.). Levels of uniformly expressed housekeeping genes large ribosomal subunit protein 32-3A (L32) or glyceraldehyde-3-phosphate dehydrogenase (GAPDH), were used for normalization. The value of each chemokine receptor band divided by the value of the indicated housekeeping gene band in the same sample yielded the relative intensity. Normalized receptor expression represents the ratio of the relative intensity following treatment with chemokine versus the relative intensity of medium alone. Treatment with pharmacological inhibitors. Astrocytes were washed and resuspended in serum-and insulin-free complete medium and starved overnight. Cells were treated at 37° C. for 1 h with 100 ng/ml Pertussis toxin (PTx) before addition of RANTES or IL-1. […] The cells were harvested after a 3 h incubation with RANTES; RNA was prepared and assayed by RPA.

murine KC promoter = assay: KC promoter luciferase reporter in transfected astrocytes; format: cell-based, mouse; settings: U0126 indicated amounts or 5 μM SB203580 plus 100 ng/ml RANTES, 24 h
Excerpt: Plasmids, transient transfection, and luciferase activity assay. The KC reporter plasmid was constructed by using a luciferase reporter gene pGL-3 basic vector (Promega, Madison, Wis.) driven by mouse KC promoter (−2878/+43). Wild-type p90RSK expression (WT pKH3) and dominant negative p90RSK expression (ΔΔ RSK pKH3) plasmids were obtained from Dr. John Blenis, Harvard Medical School. Astrocytes were transiently transfected with Lipofectamine 2000 reagent (Life Technologies, Gaithersburg, Md.) according to the manufacturer's protocol. After 24 h, the cells were stimulated with RANTES in absence or presence of the indicated inhibitor, and luciferase activity was determined after an additional 24 h, by the procedure according to the manufacturer (Promega, Madison, Wis.). Relative luciferase activity was normalized for cell lysate protein concentration as determined by BCA protein assay kit (Pierce, Rockford, Ill.). The Relative Fold Induction is the relative intensity of the experimental sample divided by the relative intensity of the medium control.
To establish whether RANTES up-regulation of chemokine production is mediated by activation of promoter elements, primary astrocyte cultures were transiently transfected with a murine KC promoter-luciferase construct, and reporter activity was monitored after RANTES treatment.

PKA = PKA activity assay on lysates of treated astrocytes; format: cell-based, mouse
Protocol: PKA activity assay. PKA activity was determined using a commercially available kit (Calbiochem, San Diego, Calif.) according to manufacturer's recommendations. Primary mouse astrocytes were grown in 6-well plates and then stimulated as described and lysed in 100 μl buffer (same buffer used for Western blotting) for 30 min. Five μl of the lysates were incubated with 20 μl PKA reaction mixture at 30° C. for 30 min. The reaction was terminated by adding 10 μl stop solution and ^32P radioactivity was counted.

[3] = test system: intracellular cAMP in astrocytes; assay: Intracellular cAMP in astrocytes (EIA); format: cell-based, mouse; settings: 1 μM forskolin, 1 h
Protocol: FIG. 8 is a set of bar graphs showing that RANTES reduced intracellular cAMP accumulation in astrocytes. Panel A. Astrocytes were treated with the indicated doses of RANTES or TCA4 for 5 min. Intracellular cAMP was detected as described in Materials and Methods. Values represent the mean±S.E.M of triplicate experiments. Panel B. Kinetics of intracellular cAMP levels. Astrocytes were treated with 100 ng/ml RANTES for indicated times. Panel C. RANTES inhibited forskolin-induced intracellular cAMP accumulation. Astrocytes were pretreated with 1 μM forskolin for 1 h then stimulated with the indicated amount of RANTES for 5 min. Intracellular cAMP was determined by EIA. Values are presented as relative cAMP level and represent the mean±S.E.M. of triplicate experiments.
To further elucidate the RANTES-mediated signaling pathway in astrocytes, intracellular cAMP levels were evaluated following chemokine stimulation. Primary mouse astrocytes were incubated with the indicated dose of RANTES or the negative control chemokine, TCA4 for 5 min and monitored for cAMP levels. RANTES (100 ng/ml) decreased intracellular cAMP levels by 68% in a dose dependent fashion (FIG. 8A).

[4] = test system: CXCR4, CX3CR1, CCR1, CCR5 transcripts in astrocytes; assay: RPA for chemokine receptor transcripts in astrocytes; format: cell-based, mouse
Protocol: RNA isolation and RNase protection assay (RPA). RNA was prepared as in Luo, Y., et al. 1999. J Immunol 163:3985. RNase protection assays (RPA) for chemokine message were conducted with multi-probe templates according to the manufacture's protocol (RiboQuant assay kit, BD-PharMingen, San Diego, Calif.). Gels were scanned and radioactive bands quantitated using a phosphoimager (Molecular Dynamics, Sunnyvale, Calif.). Levels of uniformly expressed housekeeping genes large ribosomal subunit protein 32-3A (L32) or glyceraldehyde-3-phosphate dehydrogenase (GAPDH), were used for normalization. The value of each chemokine receptor band divided by the value of the indicated housekeeping gene band in the same sample yielded the relative intensity. Normalized receptor expression represents the ratio of the relative intensity following treatment with chemokine versus the relative intensity of medium alone.
Treatment with the RANTES-related chemokines RANTES or eotaxin, or with TNF-α also found to down-regulate expression of CX3CR1 transcripts. In addition, CXCR4 mRNA levels were decreased, while the levels of CCR1 transcripts were elevated. In contrast, little or no regulation of CCR5 was noted. The pooled results of 3-4 experiments indicate eotaxin caused an average 60% decrease in CXCR4 (P less than 0.01) and a 70% decrease in CX3CR1 mRNA (P less than 0.02) (FIG. 8.B). The effects of RANTES stimulation were similar with an average 70 and 90% reduction in CXCR4 and CX3CR1 transcripts, respectively (P less than 0.01).

Molecule: CN(C)CCCn1cc(C2=C(c3c[nH]c4ccccc34)C(=O)NC2=O)c2ccccc21 [GF109203, reference compound]
- MEK phosphorylation ([1]; protein kinase C inhibitor control, 20 min): failed to stimulate

Molecule: O=c1c(-c2ccc(O)cc2)coc2cc(O)cc(O)c12 [Genistein, genistein, reference compound]
- effect on RANTES-induced chemokine message ([2]; U0126 50 μM, genistein 100 μM, wortmannin 1 μM, added 30 min prior to chemokine, 3 h RANTES): block chemokine message

Molecule: O=S(=O)(NCCNC/C=C/c1ccc(Br)cc1)c1cccc2cnccc12 [H-89, reference compound]
- expression of transcripts for MIP-1α [2]: induced
- MEK, erk1/2 and RSK phosphorylation ([1]; indicated doses, 20 min, no RANTES): induced

Molecule: Nc1ncnc2c1nc(Br)n2C1OC2COP(O)(=S)OC2C1O (stereo not drawn) [Rp-8-bromo-cAMP, reference compound]
- expression of transcripts for MIP-1α [2]: induced

Molecule: C[S+]([O-])c1ccc(-c2nc(-c3ccncc3)c(-c3ccc(F)cc3)[nH]2)cc1 (stereo not drawn) [SB203580, reference compound]
- effect on RANTES-mediated transcription of chemokine RNA [2]: failed to modulate
- effect on RANTES-induced KC reporter activity (murine KC promoter): did not inhibit
- effect on erk1/2 and RSK phosphorylation induced by H-89 [1]: fail to block

Molecule: N#CC(=C(/N)Sc1ccccc1N)/C(C#N)=C(\N)Sc1ccccc1N [U0126, reference compound]
- effect on H-89 induced chemokine/cytokine transcription [2]: inhibited; also recorded: blocked
- effect on RANTES-induced chemokine message [2]: blocked induction of chemokine transcripts
- effect on background level of RANTES transcript [2]: failed to diminish
- inhibition of RANTES-induced TNF-α and chemokine transcription [2]: partially inhibited; also recorded: completely inhibited
- effect on RANTES-induced KC reporter activity (murine KC promoter): inhibit reporter activity
- effect on PKA activity (PKA): neither U0126 nor Raf-1 inhibitor decreased PKA activity
- effect on erk1/2 and RSK phosphorylation induced by H-89 [1]: blocked
- effect on RANTES-induced RSK phosphorylation ([1]; varying concentrations before 100 ng/ml RANTES, 20 min): block RSK phosphorylation in a dose dependent fashion

Molecule: CCCC(=O)Nc1ncnc2c1ncn2[C@@H]1O[C@@H]2COP(=O)(O)O[C@H]2[C@H]1OC(=O)CCC [db-cAMP, dibutyryl cAMP, reference compound]
- effect of cAMP analogue alone on transcription ([2]; 500 μM, no RANTES): Neither cAMP analogue alone had any effect
- effects on KC and MIP-2 transcription ([2]; 500 μM, peaking at 2 h): weak and transient
- effect on astrocyte PKA activity (PKA; 1 μM forskolin, 500 μM db-cAMP or 500 μM 8-bromo-cAMP, 1 h): activated

Molecule: C=C[C@@]1(C)CC(=O)[C@]2(O)[C@@]3(C)[C@@H](O)CCC(C)(C)[C@@H]3[C@H](O)[C@H](OC(C)=O)[C@@]2(C)O1 [forskolin, reference compound]
- increase of intracellular cAMP levels [3]: about 4 fold

Molecule: MCP-1: recombinant mouse CC-chemokine, purchased from BD-PharMingen
- modulation of expression of any of the receptor transcripts examined [4]: did not significantly modulate
- expression of TNF-α, RANTES, KC, MIP-1α, MIP-2, and MCP-1 transcripts [2]: no effect

Molecule: PKI: protein kinase A inhibitor 14-22 amide (SGRTGRRNA-NH2; UniProt P61925 14-22, looked up, fragment) [reference compound]
- expression of transcripts for MIP-1α [2]: induced

Molecule: SDF-1α
- expression of TNF-α, RANTES, KC, MIP-1α, MIP-2, and MCP-1 transcripts [2]: no effect

Molecule: TNF-α
- CX3CR1 and CXCR4 expression [4]: reduced
- change in CCR5 transcripts [4]: little or no change
- increase of CCR1 transcripts [4]: 55%

B1: MIP-1α: recombinant mouse CC-chemokine, purchased from R&D System (protein, UniProt P10855 24-92, looked up)
C-C motif chemokine 3: APYGADTPTACCFSYSRKIPRQFIVDYFETSSLCSQPGVIFLTKRNRQICADSKETWVQEYITDLELNA
- expression of TNF-α, RANTES, KC, MIP-1α, MIP-2, and MCP-1 transcripts [2]: up-regulated

B2: MIP-1β: recombinant mouse CC-chemokine, purchased from R&D System (protein, UniProt P14097 24-92, looked up)
C-C motif chemokine 4: APMGSDPPTSCCFSYTSRQLHRSFVMDYYETSSLCSKPAVVFLTKRGRQICANPSEPWVTEYMSDLELN
- expression of TNF-α, RANTES, KC, MIP-1α, MIP-2, and MCP-1 transcripts [2]: up-regulated

B3: IL-1: recombinant murine IL-1β, purchased from Invitrogen (protein, UniProt P10749 118-269, looked up)
Interleukin-1 beta: VPIRQLHYRLRDEQQKSLVLSDPYELKALHLNGQNINQQVIFSMSFVQGEPSNDKIPVALGLKGKNLYLSCVMKDGTPTLQLESVDPKQYPKKKMEKRFVFNKIEVKSKVEFESAEFPNWYISTSQAEHKPVFLGNNSGQDIIDFTMESVSS
- activation of the three MAP kinases (ERK1/2, SAPK/JNK, p38) ([1]; 20 ng/ml IL-1β, 20 min): activated
